Patent publication US20210137903A1, “ANTI-ANDROGENS FOR THE TREATMENT OF PROSTRATE CANCER” (priority 2019, published 2021)
Where two headings read alike, the source gives them in different places.

Assays:
[1] = Single 240-mg dose pharmacokinetics in healthy subjects (earlier studies); assay type: in vivo, human
From the text: (§1) Apalutamide is a Biopharmaceutics Classification System Class II drug (highly permeable and poorly soluble). The commercialized formulation is a spray dried powder of amorphous apalutamide.

[2] = Biopharmaceutics Classification System classification; assay type: physicochemical; conditions: highly permeable and poorly soluble
From the text: as §1

[3] = Single-dose 14C-apalutamide absolute bioavailability and microtracer study; design: species or system human; conditions: in vivo
high-risk nmCRPC = assay: Phase 3 SPARTAN registration study, apalutamide 240 mg once daily vs placebo; assay type: in vivo, human
From the text: This study was a randomized, double-blind, placebo-controlled, multicenter trial that evaluated apalutamide treatment in patients with high-risk nmCRPC. […] All patients continued to receive ongoing androgen-deprivation therapy (GnRHa or surgical castration).

[4] = Safety in healthy subjects (previous single-dose studies); assay type: in vivo
From the text: Healthy subjects are commonly selected for PK studies as they allow for assessments in the absence of confounding factors such as comorbid conditions and concomitant medications. In this study, only male subjects were enrolled as the target patient population for clinical use of apalutamide consists of male subjects with CRPC.
The potential risks to subjects in this study included exposure to study drugs, with a potential for AEs. […] Subjects were monitored for AEs throughout the study, and an expert investigator was chosen to conduct the study. In each treatment period, subjects were confined to the study center until completion of the 72-hour PK assessments on Day 4 and returned to the study center for additional assessments up to Day 8 after intake of the study drug. Subject's safety was monitored at regular intervals throughout the study by physical examination, laboratory safety assessments, ECG and vital signs.

[5] = tested on: non-castrate hormone-sensitive and bicalutamide-resistant human prostate cancer xenograft models; conditions: cited from earlier work

CNC(=O)c1ccc(N2C(=S)N(c3cnc(C#N)c(C(F)(F)F)c3)C(=O)C23CCC3)cc1F [apalutamide, 4-[7-(6-cyano-5-trifluoromethylpyridin-3-yl)-8-oxo-6-thioxo-5,7-diazaspiro[3.4]oct-5-yl]-2-fluoro-N-methylbenzamide]
Cmax lower with a high-fat meal compared to fasted ([1]; fed vs fasted): approximately 16% | extent of absorption based on AUC∞ under fed conditions ([1]; fed vs fasted): remained unchanged | bioavailability ([1]; human, in vivo, oral, single dose 240 mg, read-out: absolute bioavailability): ~100% | Cmax ([1]; human, plasma, oral, 240 mg, N=15, read-out: mean single dose plasma Cmax): ~2400 ng/mL | half-life ([1]; human, plasma, oral, 240 mg, human, read-out: half-life (converted)): ~168 h | Cmax ([1]; human, plasma, oral, 240 mg, read-out: mean Cmax from a similar study): 2420 ng/mL | half-life ([1]; human, plasma, oral, 240 mg, read-out: mean elimination half-life (t1/2) (converted)): ~162 h | AUC(0-t) ([1]; human, plasma, oral, 240 mg, N=15, read-out: AUC0-168 h from another bioavailability study): 121 µg·h/mL | AUC ([1]; human, plasma, oral, 240 mg, N=15, read-out: mean AUC28): 225 µg·h/mL | Tmax ([1]; human, plasma, oral, single 240-mg dose, tablet, healthy subjects, read-out: median Tmax): 2 to 3 h | Fabs ([1]; single dose 240 mg): 1.11 | Biopharmaceutics Classification System class [2]: Class II | 14C-radioactivity excreted via feces (arithmetic mean) [3]: 24.3% | total 14C-radioactivity excreted in urine (arithmetic mean) [3]: 64.2% | total administered 14C-radioactive dose recovered [3]: 88.9% | subjects with documented PSA progression (high-risk nmCRPC; 192 subjects): 24% | arthralgia (high-risk nmCRPC; TEAE incidence): 16% | diarrhea (high-risk nmCRPC; TEAE incidence): 20% | fatigue (high-risk nmCRPC; TEAE incidence): 30% | hypertension (high-risk nmCRPC; TEAE incidence): 25% | nausea (high-risk nmCRPC; TEAE incidence): 18% | weight decreased (high-risk nmCRPC; TEAE incidence): 16% | fall (high-risk nmCRPC; TEAE incidence, all grades): 16% | skin rash (grouped term) (high-risk nmCRPC; TEAE incidence, all grades): 24% | fracture (high-risk nmCRPC; all grades): 12% | hypothyroidism (high-risk nmCRPC; all grades): 8.1% | seizure (high-risk nmCRPC; all grades): 0.2% | Grade 3 skin rashes (high-risk nmCRPC; in vivo): 5.2% | decrease of risk of PSA progression compared with placebo (high-risk nmCRPC; in vivo): 94% | incidence of AEs of special interest (high-risk nmCRPC; in vivo): 42% | longer median metastasis-free survival over placebo (high-risk nmCRPC; in vivo): 2 years | lower limit of the 95% CI for the median time to PSA progression (high-risk nmCRPC; in vivo): 36.8 months | median time to PSA progression (high-risk nmCRPC; in vivo): not estimable | subjects who discontinued treatment due to TEAEs (high-risk nmCRPC; in vivo): 11% | subjects with Grade 3-4 TEAEs (high-risk nmCRPC; in vivo): 45% | subjects with serious adverse events (SAEs) (high-risk nmCRPC; in vivo): 25% | subjects with treatment-emergent adverse events (high-risk nmCRPC; in vivo): 97% | total PSA response (confirmed and unconfirmed) (high-risk nmCRPC; in vivo): 93% | confirmed prostate-specific antigen (PSA) response (high-risk nmCRPC; subjects in apalutamide arm): 90% | HR for PSA progression (high-risk nmCRPC; vs placebo, 95% CI: 0.052, 0.080): 0.064 | testosterone and luteinizing hormone (LH) ([4]; healthy men, 240 mg): transient increase | TSH ([4]; healthy men, single dose 240 mg): Reversible mild increases | tolerability of single doses up to 240 mg ([4]; human, in vivo): well tolerated | tumor regression [5]: partial or complete tumor regression
